Experimental data taken from article PMC11106956 (Malaria Journal, 2024).
Where two headings read alike, the source gives them in different places.

What was measured:
[1] = single oral PQ 0.40-0.50 mg/kg; for Half-life (terminal elimination): median (range) in Table 3; for CF, proportional conversion factor between capillary and venous drug measurements, population estimate (%RSE): plasma; for MTT, absorption mean transit time, population estimate (%RSE): each compound modelled separately
Description: (§1) This study was a part of an open-label, nonrandomized, dose-adjustment trial of the safety of SLD-PQ in G6PD-deficient and G6PD-normal males in Mali without microscopically detected malaria parasite infection. The main clinical trial was separated into two parts, i.e., Part I in adult males (aged 18–50) and Part II in children (aged 5–17). […] Only 28 adult males from the main trial provided pharmacokinetic samples and were included in this study.
(§2) After collection of day 0 samples, each participant received an oral dose of PQ according to his group assignment, after a fatty snack (biscuits) to minimized gastrointestinal symptoms. The study pharmacist prepared a dose by crushing a 15-mg tablet of PQ (Sanofi, Laval, Canada) in 15 mL of drinking water and administered the dose to the nearest 0.1 mL under direct observation. […] Capillary samples (0.5 mL) were collected at 2, 4, and 6 h post-dose. Both venous and capillary blood were collected using EDTA tubes, and centrifuged at 1100–1300×g for 10–20 min to obtain plasma samples. The samples were store immediately at − 80 °C until analysed.
(§3) All compounds were analysed using the liquid chromatography–mass spectrometry (LC–MS) method of Avula et al. [14], modified to employ an ACQUITY UHPLC™, BEH Shield RP18 column (100 mm × 2.1 mm I.D., 1.7 mm) equipped with an LC-18 guard column (Vanguard 2.1 × 5 mm, Waters Corp, Milford, MA, USA). PQ, CPQ and PQCG were separated and eluted within 10-min retention time. The mobile phase, run at a flow rate of 0.25 ml/min, consisted of 0.05% formic acid in water (A) water and 0.05% formic acid in acetonitrile (B) and was applied in a linear gradient elution. […] Samples were injected at 10 μL volume. The limits of quantification in plasma were 5 ng/mL for PQ and PQCG, and 1 ng/mL for CPQ. Quality control samples at 20 ng/mL were run at beginning and end of the batch analyses in duplicate. Intra-assay variability was less than 10%.
(§4) PQ, CPQ, and PQCG concentrations were transformed into their natural logarithms and analysed using a nonlinear mixed-effects modelling approach in NONMEM version 7.4 (Icon Development Solution, Ellicott city, MD). Pirana version 3.0.0 [15], Perl-speaks-NONMEM version 5.3.0 (PsN) [16] and R version 4.2.0 were used for automation, model evaluation, and diagnostics during the model building process. The first-order conditional estimation method with interaction (FOCE-I) was applied for the estimation method. Each compound was modelled separately. Data below the LLOQ was either omitted (M1-method) or incorporated by imputing the first LLOQ data as half of LLOQ (M6-method) [17].
(§5) Pharmacokinetic parameters were implemented as a log-normal distribution as follows: θi=θTV×expηi,θ where θi is the individual i th pharmacokinetic parameter estimate, θTV is the typical value of the population mean estimate, and ηi,θ is the inter-individual variability of the parameter θ for the i th individual, assumed to be normal distribution with zero mean and variance ω^2 . Estimated inter-individual variability below 10% was fixed to zero.
(§6) A linear association between capillary and venous plasma concentrations of all compounds was assumed and modelled using an estimated conversion factor at the population level. Unexplained residual errors were modelled separately for capillary and venous plasma concentrations and implemented as an additive error model on the log-transformed concentrations, equivalent to an exponential error on arithmetic scale.

[2] = clinical; conditions: male, human, plasma, po
Description: as §1, §2, §3, §4, §5, §6

[3] = test system: haemoglobin levels; assay: Linear regression of pharmacokinetic parameters against change in haemoglobin; haemoglobin follow-up to 28 days; assay type: in vivo, human (African males, Mali); conditions: for Correlation (regression slope) of AUC24 with change in haemoglobin / Correlation (regression slope) of CMAX with change in haemoglobin: slope (95% CI)
[4] = cited from earlier work
[5] = test system: haemoglobin; conditions: G6PD-deficient individual, cited from earlier work
[6] = test system: methaemoglobin levels; assay: Linear regression of pharmacokinetic parameters against change in methaemoglobin; assay type: in vivo, human (African males, Mali); conditions: slope (95% CI)
[7] = typical individual 62.5 kg, metabolites dosed as PQ molar dose 1:1
[8] = background statement, literature
[9] = G6PD-deficient individuals (n = 18)
[10] = G6PD-normal individuals (n = 10)

With `COc1cc(NC(C)CCCN)c2ncccc2c1` (stereo not drawn) [Primaquine, reference compound] the “Half-life (terminal elimination)” value ([1]; n = 28) was 7.42 (7.04–7.93) h, the “CF, proportional conversion factor between capillary and venous drug measurements, population estimate (%RSE)” value [1] was 32.9 (6.89%) and the “MTT, absorption mean transit time, population estimate (%RSE)” value ([1]; typical individual 62.5 kg) was 0.563 (18.7%) h. The “CL/F, apparent elimination clearance, population estimate (%RSE)” value [1, 7] was 15.4 (9.57%) L/h, the Tmax [2] was 0.872 h and the half-life ([2]; Half-life (terminal elimination), median (range) in Table 3, single oral PQ 0.40-0.50 mg/kg, n = 28) was about 7.42 h. For the same molecule, the “haemoglobin decline after PQ administration” value ([3]; in vivo) was “no significant haemoglobin declines”, the haematological safety ([3]; in vivo, 0.5 mg/kg) was “haematologically safe” and the bioavailability [4, 8] was 96%. For the same molecule, the terminal half-life [4, 8] was 5 to 6 h, the “predicted median reduction of haemoglobin” value ([5]; 0.25 mg/kg SLD-PQ, 90% CI 0.12-0.65) was 0.35 g/dL and the “predicted median reduction of haemoglobin” value ([5]; 0.40 mg/kg SLD-PQ, 90% CI 0.21-1.00) was 0.56 g/dL.

With `COc1cc(NC(C)CCC(=O)O)c2ncccc2c1` (stereo not drawn) [Carboxy-primaquine] the “Half-life (terminal elimination)” value ([1]; n = 28) was 469 (325–1870) h, the “AUC24, area under the concentration-time curve up to 24 h” value ([1]; median (range), n = 28) was 8030 (1490–12,800) h × ng/mL and the “CMAX, maximum concentration” value ([1]; median (range), n = 28) was 338 (74.3–546) ng/mL. For the same molecule, the “TMAX, time to maximum concentration” value ([1]; median (range), n = 28) was 4.57 (2.19–18.1) h, the “CF, proportional conversion factor between capillary and venous drug measurements, population estimate (%RSE)” value [1] was 69.1 (3.83%) and the terminal elimination half-life ([1]; sampling only to 24 h) was “approximately 19.5 days”. The “MTT, absorption mean transit time, population estimate (%RSE)” value ([1]; typical individual 62.5 kg) was 1.24 (11.7%) h, the “CL/F, apparent elimination clearance, population estimate (%RSE)” value [1, 7] was 0.129 (28.5%) L/h and the “VC/F, apparent volume of distribution of the central compartment, population estimate (%RSE)” value [1, 7] was 93.3 (7.00%) L. For the same molecule, the “Correlation (regression slope) of AUC24 with change in haemoglobin” value [3, 9] was 195 (95% CI: -58.7 to 448) p = 0.123 % HB change per 1 ng·hr/mL, the “Correlation (regression slope) of CMAX with change in haemoglobin” value [3, 9] was 9.27 (95% CI: -1.25 to 19.8) p = 0.0803 % HB change per 1 ng/mL and the “Correlation (regression slope) of AUC24 with change in haemoglobin” value [3, 10] was -206 (95% CI: -555 to 143) p = 0.210 % HB change per 1 ng·hr/mL. For the same molecule, the “Correlation (regression slope) of CMAX with change in haemoglobin” value [3, 10] was -4.63 (95% CI: -18.4 to 9.13) p = 0.460 % HB change per 1 ng/mL, the “Correlation (regression slope) of AUC24 with change in methaemoglobin” value [6, 9] was -1914 (95% CI: -8430 to 4602) p-value = 0.534 % mHB change per 1 ng·hr/mL and the “Correlation (regression slope) of CMAX with change in methaemoglobin” value [6, 9] was -49.4 (95% CI: -341 to 242) p-value = 0.719 % mHB change per 1 ng/mL. The “Correlation (regression slope) of AUC24 with change in methaemoglobin” value [6, 10] was 1948 (95% CI: -12127 to 16023) p-value = 0.720 % mHB change per 1 ng·hr/mL, the “Correlation (regression slope) of CMAX with change in methaemoglobin” value [6, 10] was 119 (95% CI: -351 to 589) p-value = 0.521 % mHB change per 1 ng/mL and the “terminal half-life previously reported” value ([4]; healthy volunteers) was 15.6 h.
